According to the NIST ThermoML archive (doi:10.1016/j.fluid.2005.06.010):

Assay: xn = mol fraction of the nth substance listed
Conditions: Fluid (supercritical or subcritical phases), Vibrating tube method

c1ccc2ccccc2c1 [naphthalene] + O=C=O
Conditions	mass density [kg/m3]
328.08 K, 11734 kPa, x1 = 0.0065	526.75
328.08 K, 11815 kPa, x1 = 0.0065	533.03
328.08 K, 11937 kPa, x1 = 0.0065	541.87
328.08 K, 12028 kPa, x1 = 0.0065	548.44
328.08 K, 12127 kPa, x1 = 0.0065	555.07
328.08 K, 12334 kPa, x1 = 0.0065	568.49
328.08 K, 12646 kPa, x1 = 0.0065	586.46
328.08 K, 13208 kPa, x1 = 0.0065	613.74
328.08 K, 13824 kPa, x1 = 0.0065	638.32
328.08 K, 14520 kPa, x1 = 0.0065	661.29
328.08 K, 15410 kPa, x1 = 0.0065	685.64
328.08 K, 16319 kPa, x1 = 0.0065	706.24
328.08 K, 17226 kPa, x1 = 0.0065	723.77
328.08 K, 18128 kPa, x1 = 0.0065	739.05
328.08 K, 19046 kPa, x1 = 0.0065	752.91
328.08 K, 20020 kPa, x1 = 0.0065	766.16
328.08 K, 21002 kPa, x1 = 0.0065	778.22
328.08 K, 21995 kPa, x1 = 0.0065	789.31
328.08 K, 22871 kPa, x1 = 0.0065	798.48
328.08 K, 23424 kPa, x1 = 0.0065	803.93
328.1 K, 10952 kPa, x1 = 0.0038	442.37
328.1 K, 11010 kPa, x1 = 0.0038	448.13
328.1 K, 11054 kPa, x1 = 0.0038	452.8
328.1 K, 11219 kPa, x1 = 0.0038	468.8
328.1 K, 11363 kPa, x1 = 0.0038	482.43
328.1 K, 11517 kPa, x1 = 0.0038	495.77
328.1 K, 11649 kPa, x1 = 0.0038	507.25
328.1 K, 11832 kPa, x1 = 0.0038	521.74
328.1 K, 11972 kPa, x1 = 0.0038	532.31
328.1 K, 12088 kPa, x1 = 0.0038	540.71
328.1 K, 12322 kPa, x1 = 0.0038	556.51
328.1 K, 12538 kPa, x1 = 0.0038	569.79
328.1 K, 12706 kPa, x1 = 0.0038	579.47
328.1 K, 12941 kPa, x1 = 0.0038	591.84
328.1 K, 13117 kPa, x1 = 0.0038	600.49
328.1 K, 13376 kPa, x1 = 0.0038	612.23
328.1 K, 13618 kPa, x1 = 0.0038	622.37
328.1 K, 13925 kPa, x1 = 0.0038	634.21
328.1 K, 14240 kPa, x1 = 0.0038	645.33
328.1 K, 14511 kPa, x1 = 0.0038	654.12
328.1 K, 14850 kPa, x1 = 0.0038	664.35
328.1 K, 15299 kPa, x1 = 0.0038	676.78
328.1 K, 15816 kPa, x1 = 0.0038	689.62
328.1 K, 16314 kPa, x1 = 0.0038	700.83
328.1 K, 16845 kPa, x1 = 0.0038	711.78
328.1 K, 17403 kPa, x1 = 0.0038	722.35
328.1 K, 18014 kPa, x1 = 0.0038	732.96
328.1 K, 18738 kPa, x1 = 0.0038	744.46
328.1 K, 19499 kPa, x1 = 0.0038	755.49
328.1 K, 20377 kPa, x1 = 0.0038	767.2
328.1 K, 21134 kPa, x1 = 0.0038	776.5
328.1 K, 22132 kPa, x1 = 0.0038	787.85
328.1 K, 23017 kPa, x1 = 0.0038	797.14
328.1 K, 24029 kPa, x1 = 0.0038	806.95
328.1 K, 25024 kPa, x1 = 0.0038	815.98
328.11 K, 15028 kPa, x1 = 0.0214	725.95
328.11 K, 15923 kPa, x1 = 0.0214	742.34
328.11 K, 17035 kPa, x1 = 0.0214	759.59
328.11 K, 18008 kPa, x1 = 0.0214	773.1
328.11 K, 19015 kPa, x1 = 0.0214	785.68
328.11 K, 20044 kPa, x1 = 0.0214	797.24
328.11 K, 21022 kPa, x1 = 0.0214	807.22
328.11 K, 22000 kPa, x1 = 0.0214	816.43
328.11 K, 23011 kPa, x1 = 0.0214	825.23
328.11 K, 24023 kPa, x1 = 0.0214	833.49
332.93 K, 18103 kPa, x1 = 0.0198	740.17
332.93 K, 19004 kPa, x1 = 0.0198	753.43
332.93 K, 20061 kPa, x1 = 0.0198	767.37
332.93 K, 21067 kPa, x1 = 0.0198	779.34
332.93 K, 22050 kPa, x1 = 0.0198	789.99
332.93 K, 23026 kPa, x1 = 0.0198	799.71
332.93 K, 23949 kPa, x1 = 0.0198	808.29
332.93 K, 24971 kPa, x1 = 0.0198	817.26
332.95 K, 12055 kPa, x1 = 0.0049	468.83
332.95 K, 13050 kPa, x1 = 0.0049	535.86
332.95 K, 14011 kPa, x1 = 0.0049	584.76
332.95 K, 14979 kPa, x1 = 0.0049	622.27
332.95 K, 16026 kPa, x1 = 0.0049	654.27
332.95 K, 17024 kPa, x1 = 0.0049	679.08
332.95 K, 18017 kPa, x1 = 0.0049	699.78
332.95 K, 18994 kPa, x1 = 0.0049	717.43
332.95 K, 20008 kPa, x1 = 0.0049	733.55
332.95 K, 21018 kPa, x1 = 0.0049	747.87
332.95 K, 22004 kPa, x1 = 0.0049	760.51
332.95 K, 23003 kPa, x1 = 0.0049	772.24
332.95 K, 24035 kPa, x1 = 0.0049	783.38
332.96 K, 13066 kPa, x1 = 0.0093	562.4
332.96 K, 14010 kPa, x1 = 0.0093	607.19
332.96 K, 14033 kPa, x1 = 0.0144	623.67
332.96 K, 15035 kPa, x1 = 0.0144	657.01
332.96 K, 15044 kPa, x1 = 0.0093	643.85
332.96 K, 15076 kPa, x1 = 0.0173	670.77
332.96 K, 16046 kPa, x1 = 0.0093	671.79
332.96 K, 16056 kPa, x1 = 0.0144	683.98
332.96 K, 16081 kPa, x1 = 0.0173	695.5
332.96 K, 17019 kPa, x1 = 0.0144	704.86
332.96 K, 17024 kPa, x1 = 0.0173	714.84
332.96 K, 17026 kPa, x1 = 0.0093	694.34
332.96 K, 17996 kPa, x1 = 0.0173	731.97
332.96 K, 18009 kPa, x1 = 0.0093	713.47
332.96 K, 18013 kPa, x1 = 0.0144	723.3
332.96 K, 18019 kPa, x1 = 0.0235	741.5
332.96 K, 19018 kPa, x1 = 0.0235	756.06
332.96 K, 19028 kPa, x1 = 0.0144	739.71
332.96 K, 19030 kPa, x1 = 0.0093	730.7
332.96 K, 19068 kPa, x1 = 0.0173	748.38
332.96 K, 19996 kPa, x1 = 0.0173	761.05
332.96 K, 20018 kPa, x1 = 0.0144	753.83
332.96 K, 20030 kPa, x1 = 0.0093	745.57
332.96 K, 20031 kPa, x1 = 0.0235	769.21
332.96 K, 20990 kPa, x1 = 0.0144	766.28
332.96 K, 21000 kPa, x1 = 0.0235	780.59
332.96 K, 21004 kPa, x1 = 0.0093	758.59
332.96 K, 21018 kPa, x1 = 0.0173	773.69
332.96 K, 21972 kPa, x1 = 0.0235	791.04
332.96 K, 21996 kPa, x1 = 0.0173	784.65
332.96 K, 22030 kPa, x1 = 0.0144	778.43
332.96 K, 22033 kPa, x1 = 0.0093	771.07
332.96 K, 22991 kPa, x1 = 0.0173	794.89
332.96 K, 22996 kPa, x1 = 0.0235	801.19
332.96 K, 23002 kPa, x1 = 0.0093	781.81
332.96 K, 23017 kPa, x1 = 0.0144	789
332.96 K, 23986 kPa, x1 = 0.0235	810.27
332.96 K, 23990 kPa, x1 = 0.0093	791.9
332.96 K, 23999 kPa, x1 = 0.0144	798.72
332.96 K, 24019 kPa, x1 = 0.0173	804.7
332.96 K, 24677 kPa, x1 = 0.0173	810.61
332.96 K, 24809 kPa, x1 = 0.0235	817.39
332.96 K, 24940 kPa, x1 = 0.0144	807.41
333 K, 12451 kPa, x1 = 0.0065	503.55
333 K, 13033 kPa, x1 = 0.0065	540.53
333 K, 13760 kPa, x1 = 0.0065	578.33
333 K, 14541 kPa, x1 = 0.0065	610.99
333 K, 15426 kPa, x1 = 0.0065	640.78
333 K, 16333 kPa, x1 = 0.0065	665.58
333 K, 17231 kPa, x1 = 0.0065	686.41
333 K, 18146 kPa, x1 = 0.0065	704.71
333 K, 19018 kPa, x1 = 0.0065	720.04
333 K, 20017 kPa, x1 = 0.0065	735.62
333 K, 21002 kPa, x1 = 0.0065	749.43
333 K, 22012 kPa, x1 = 0.0065	762.16
333 K, 23025 kPa, x1 = 0.0065	773.85
333 K, 24004 kPa, x1 = 0.0065	784.3
333 K, 25022 kPa, x1 = 0.0065	794.34
333.02 K, 12620 kPa, x1 = 0.0038	505.57
333.02 K, 12810 kPa, x1 = 0.0038	517.8
333.02 K, 12997 kPa, x1 = 0.0038	529.34
333.02 K, 13183 kPa, x1 = 0.0038	540.11
333.02 K, 13406 kPa, x1 = 0.0038	552.35
333.02 K, 13640 kPa, x1 = 0.0038	564.51
333.02 K, 13893 kPa, x1 = 0.0038	576.62
333.02 K, 14134 kPa, x1 = 0.0038	587.16
333.02 K, 14390 kPa, x1 = 0.0038	597.75
333.02 K, 14768 kPa, x1 = 0.0038	612.29
333.02 K, 15159 kPa, x1 = 0.0038	625.81
333.02 K, 15535 kPa, x1 = 0.0038	637.78
333.02 K, 16027 kPa, x1 = 0.0038	652.03
333.02 K, 16469 kPa, x1 = 0.0038	663.57
333.02 K, 17018 kPa, x1 = 0.0038	676.71
333.02 K, 17622 kPa, x1 = 0.0038	689.78
333.02 K, 18197 kPa, x1 = 0.0038	701.13
333.02 K, 18835 kPa, x1 = 0.0038	712.75
333.02 K, 19606 kPa, x1 = 0.0038	725.55
333.02 K, 20350 kPa, x1 = 0.0038	736.76
333.02 K, 21107 kPa, x1 = 0.0038	747.32
333.02 K, 22018 kPa, x1 = 0.0038	758.99
333.02 K, 22977 kPa, x1 = 0.0038	770.32
333.02 K, 23992 kPa, x1 = 0.0038	781.31
333.02 K, 25039 kPa, x1 = 0.0038	791.79
